We go through 1 molecule from patent US11980607B2, “Methods of treating malignant lymphoproliferative disorders” (Actuate Therapeutics Inc., priority 2018, dated 2024).

The subject of one assay is Jeko cells. Description: Mitotic stage morphology (Wright stain, differential counting). The assay is classed as cell-based, human. Particulars: 1.0 uM, 24 hours. As to the method:
(A) Cartoon depiction of the sequential steps (M1-M5) during mitosis (purchased from Shutterstock and modified). (B). Representative Wright stain images of Jeko cells untreated and treated with 1.0 uM 9-ING-41 for 24 hours. […] (C). Bar chart showing the number of mitotic M1-M5 cells identified when 100 untreated or 9-ING-41 treated Jeko cells were counted.
Although cells arrested in G2/M appear as a single DNA content (4N) peak on a flow cytometry histogram (FIG. 6A), there are actually at least 5 sequential steps (M1-M5) in G2/M critical to successful cell division. These include prophase (M1, chromosome condensation, mitotic spindle formation starts), prometaphase (M2, nuclear membrane breakdown, centrosome polarization), metaphase (M3, chromosome pairs align middle plane), anaphase (M4, daughter chromatids separate), telophase (M5, reformation of daughter nuclei), and the final cytokinesis (separation of two daughter cells). Each of these discrete steps has a unique identifiable nuclear morphology on Wright's stained cells (depicted in FIG. 7A). The morphology of untreated and 9-ING-41 treated Jeko cells to determine at what stage they become arrested was examined. […] These observations support the conclusion that GSK3 activity is necessary for the progression of mitotic prophase.

Assay [1] concerns T-cell lymphoma (non-Hodgkin's). Description: Treatment of T-Cell Lymphoma in a human. The assay is classed as in vivo. The conditions noted are these: 2 mg/kg per day, six 21 day cycles. As to the method: A human suffering from T-cell lymphoma (non-Hodgkin's) is administered 2 mg/kg per day of 9-ING-41 for six 21 day cycles. After treatment, the human's TCL is in remission.

For assay [2], the system named is NF-κB, DNA damage and apoptotic pathways in lymphoma cell lines. Description: Luminex analysis of NF-κB, DNA damage and apoptotic pathway signaling. It is filed as cell-based. Particulars: 1 μM, 48 hours. An excerpt: Signaling changes in NF-κB [MILLIPLEXMAP NF-κB Signaling Magnetic Bead Kit 6-plex Kit, EMD Millipore, analytes: c-MYC, FADD (Ser194), IκBα (Ser32), IKKα/β (Ser177/Ser181), NF-κB (Ser536), TNFR1], DNA damage [MILLIPLEX MAP DNA Damage/Genotoxicity Magnetic Bead Panel, EMD Millipore, analytes: ATR (total), Chk1 (Ser345), Chk2 (Thr68), H2A.X (Ser139), MDM2 (total), p21 (Total), p53 (Ser15)], and apoptotic pathways [Bio-plex pro RBM apoptosis panel 2 and 3, Bio-Rad, analytes: Bad, Bax/Bcl-2 dimer, Bcl-xL, Bim, Mcl-1, active caspase 3, Bcl-xL/Bak dimer, Mcl-1/Bak dimer, survivin] associated with 1 μM 9-ING-41 treatment for 48 hours as compared to no-treatment controls were determined using Luminex multiplex technology with a FLEXMAP 3D instrument, as per manufacturer instructions. Cells were lysed in MILLIPLEX MAP Lysis buffer supplemented with protease inhibitor cocktail (Sigma) and phosphatase inhibitor cocktails 2 and 3 (Sigma) and, after BCA protein determination, 15 μg of protein was added to each well. All samples were run in duplicate and changes in MFI or absolute quantity between 9-ING-41-treated cells and nontreated control were analyzed, and an unpaired t-test was performed to determine statistical significance.

The subject of assay [3] is primary lymphoma cells freshly isolated from patients. Description: Proliferation of primary lymphoma patient cells. It is filed as cell-based, human. Particulars: 5 patient samples (MCL, high grade B-cell lymphoma, follicular 3B, DLBCL, angioimmunoblastic TCL). An excerpt: (A) Immunoblot of GSK-3α and GSK-3β proteins showing overexpression in patient samples vs normal B-cell control. P1: MCL; P2: High grade B-cell lymphoma; P3: follicular large B-cell lymphoma 3B; P4: DLBCL; P5: angioimmunoblastic T-cell lymphoma. (B) 9-ING-41 inhibited proliferation in all 5 patient samples. (C) Immunohistochemistry staining of GSK-3β on paraffin tissue sections of patients with various lymphoma. Representative images show the spectrum of GSK-3β (in brown) overexpression in different lymphoma samples. […] Images were collected under 40× magnification.
Lymphoma tissue samples were obtained from patients after written informed consent. This Lymphoma SPORE biospecimens protocol was approved by the Mayo Clinic Institutional Review Board in accordance with the Declaration of Helsinki. All primary patient samples were biopsy tissues from spleen or lymph nodes. Fresh tissue samples were gently dissociated into cell suspension and subjected to Ficoll-Paque density gradient centrifugation. Primary lymphoma cells were then used directly for proliferation assay, or stored in −80° C. for Western analysis later after lymphoma diagnosis confirmation.
Cells were seeded at 1×10^4 cells/well in 96 well plates, and incubated with 9-ING-41 at indicated concentrations for 48 hours followed by pulsing with tritium labeled thymidine for overnight before being analyzed for thymidine uptake. […]

In the case of `Cn1cc(C2=C(c3coc4ccc(F)cc34)C(=O)NC2=O)c2cc3c(cc21)OCO3` [9-ING-41, 3-(5-Fluorobenzofuran-3-yl)-4-(5-methyl-5H-[1,3]dioxolo[4,5-f]indol-7-yl)pyrrole-2,5-dione], in the assay with Jeko cells, the “Mitotic stages seen among 100 mitotic cells” value is listed as “only prophase (M1) cells”. The Outcome after treatment result in assay [1] was “in remission”. In addition, the “Total c-MYC levels” value in assay [2] (Karpas 422 and TMD8 cell lines) is on record as “significant reduction”. Moreover, the “DNA damage signaling, p-H2A.X (Ser139)” value in assay [2] (SUDHL-4 and Karpas 422 cell lines, p<0.05) is “increased”. For the same molecule, the “phospho-p53 (Ser15)” value in assay [2] (SUDHL-4 and TMD8 cells) is “significant increase”. The “Reduction in Bcl-x1/Bak dimer expression” value in assay [2] (all cell lines except TMD8, p<0.05) is recorded as about 1.5 fold. Besides, the “Reduction in Mcl-1/Bak dimers” value in assay [2] (all lymphoma cell lines except KPUM-UH1, p<0.05) is about 2 fold. Besides, the “Active caspase 3” value in assay [2] (all lymphoma cell lines except TMD8) is “increase in active caspase 3”. The same molecule came in with a Reduction in survivin in assay [2] (all lymphoma cell lines except TMD8, p<0.05) of about 2 fold. In assay [3], the “Antiproliferative effect in primary patient cells” value is on record as “similarly responsive to the antiproliferative effects”.
